Experimental findings from US20090197856A1, “ANTIVIRAL COMPOUNDS” (Genelabs Technologies, Inc., priority 2007, published 2009) are described below.

The target in the assay is T1, HCV-NS5b (Hepatitis C virus genotype 1b, UniProt Q9WMX2).
T1 construct: (His)6 (C); made in house; host or cells: XL-1 cells (E. coli), IPTG-inducible plasmid
The experiment in a line: HCV-NS5b enzyme assay using homopolymer substrate. It is filed as biochemical. The following applies: homopolymer substrate, [3H]-UTP incorporation, 30° C., 90 minutes; read-out: IC50. The source says: The coding sequence of NS5b protein was cloned by PCR from pFKI389luc/NS3-3′/ET as described by Lohmann, V., et al. (1999) Science 285, 110-113 using the primers shown on page 266 of WO 2005/012288
The cloned fragment is missing the C terminus 21 amino acid residues. The cloned fragment was inserted into an IPTG-inducible (isopropyl-β-D-thiogalactopyranoside) expression plasmid that provides an epitope tag (His)6 at the carboxy terminus of the protein.
The recombinant enzyme was expressed in XL-1 cells and after induction of expression, the protein was purified using affinity chromatography on a nickel-NTA (nitrilotriacetic acid) column. Storage condition was 10 mM Tris-HCl pH 7.5, 50 mM NaCl, 0.1 mM EDTA (ethylenediaminetetraacetic acid), 1 mM DTT (dithiothreotol), 20% glycerol at −20° C.
The polymerase activity was assayed by measuring incorporation of radiolabeled UTP into a RNA product using a biotinylated, homopolymeric template. The template was formed by annealing adenosine homopolymer to uridine 20-mer capped with a 5′-biotin group (biotin-U^20) in the ratio of 1:4. Typically, the assay mixture (50 μL) contained 25 mM Tris-HCl (pH 7.5), 40 mM KCl, 0.3 mM MgCl2, 0.05 mM EDTA, 0.2 unit/μL Superase RNAse Inhibitor, 5 mM DTT, 30 μM UTP (Uridine triphosphate), including [^3H]-UTP (uridine triphosphate) at 0.4 μCi/μL with final concentration of 1 μM, and 50 nM of homopolymeric template. Test compounds were initially dissolved in 100% DMSO and further diluted in aqueous buffer containing 5% DMSO. Typically, compounds were tested at concentrations between 2 nM and 50 μM. Reactions were started with addition of enzyme and allowed to continue at 30° C. for 90 minutes. Reactions were quenched with 8 μL of 100 mM EDTA and reaction mixtures (30 μL) were transferred to streptavidin-coated scintillation proximity microtiter plates (FlashPlates) and incubated at room temperature overnight. Incorporation of radioactivity was determined by scintillation counting.
Inhibitor IC50 values were determined by adding test compound as ten point, two-fold serial dilutions in 100% DMSO with a final reaction concentration of 5%. IC50 was calculated by plotting the % inhibition against compound concentration and fitting the data to a constrained four parameter sigmoidal curve, equivalent to the “four parameter logistic equation”:
Where Bottom is the minimum Y value, Top is the maximum Y value, and Hillslope is the slope of the linear portion of the semi-log curve. Top and Bottom were constrained to values of 0% and 100%, respectively. These analyses were performed using Graphpad Prism v.4.0 (Graphpad Software, Inc.) in conjunction with DS Accord for EXCEL 6.0 (Accelrys, Microsoft Corp.).
The table below lists the IC50 values of compounds determined using the homopolymer substrates.
The IC50 is the concentration at which inhibition is half-maximal. Regarding `CCC(CC)NCc1cn2c3c(cccc13)-c1c(C3CCCCC3)c3ccc(C(=O)O)cc3n1CCC2` [Compound 132], the IC50 is 223 nM.
Under `O=C(O)c1ccc2c(C3CCCCC3)c3n(c2c1)CCCn1cc(CCN2CCCCC2)c2cccc-3c21` [Compound 204] stands 118 nM; under `CN(C)CCc1cn2c3c(cccc13)-c1c(C3CCCCC3)c3ccc(C(=O)O)cc3n1CCC2` [Compound 214], 278 nM.
As to `CC(C)NC1CCN2CCn3c(c(C4CCCCC4)c4ccc(C(=O)O)cc43)-c3cccc1c32` (stereo not shown) [Compound 276], the IC50 worked out at 65 nM.
For the compound `CCCNC1CCN2CCn3c(c(C4CCCCC4)c4ccc(C(=O)O)cc43)-c3cccc1c32` (stereo not shown) [Compound 277], the IC50 amounted to 56 nM.
Under `O=C(O)c1ccc2c(C3CCCCC3)c3n(c2c1)CCN1CCC(NC2CCOCC2)c2cccc-3c21` (stereo not shown) [Compound 282] stands 59 nM; under `CN(C)C1CCN2CCn3c(c(C4CCCCC4)c4ccc(C(=O)O)cc43)-c3cccc1c32` (stereo not shown) [Compound 285, 15-Cyclohexyl-4-(dimethylamino)-5,6,8,9-tetrahydro-4H-indolo[1′,2′:4,5][1,4]diazepino[6,7,1-ij]quinoline-12-carboxylic acid], 79 nM; under `CC1CN(Cc2cn3c4c(cccc24)-c2c(C4CCCCC4)c4ccc(C(=O)O)cc4n2CCC3)CC(C)O1` (stereo not shown) [Compound 330], 113 nM.
Turning to `CCN(C)Cc1cn2c3c(cccc13)-c1c(C3CCCCC3)c3ccc(C(=O)O)cc3n1CCC2` [Compound 337], the IC50 was found to be 1290 nM.
The same measure for `C=C1Cn2cc(CN3CCCCC3)c3cccc(c32)-c2c(C3CCCCC3)c3ccc(C(=O)O)cc3n2C1` [Compound 341]: 135 nM.
As to `O=C(O)c1ccc2c(C3CCCCC3)c3n(c2c1)CCCn1ccc2c(F)ccc-3c21` [Compound 344], the IC50 was 133 nM.
The same measure for `O=C(O)c1ccc2c(C3CCCCC3)c3n(c2c1)CCCn1cc(CN2CCCCC2)c2c(F)ccc-3c21` [Compound 345]: 127 nM.
Under `CCN(CC)Cc1cn2c3c(ccc(F)c13)-c1c(C3CCCCC3)c3ccc(C(=O)O)cc3n1CCC2` [Compound 346] stands 119 nM; under `CCN(C)Cc1cn2c3c(ccc(F)c13)-c1c(C3CCCCC3)c3ccc(C(=O)O)cc3n1CCC2` [Compound 347], 122 nM; under `CN1CCN(Cc2cn3c4c(ccc(F)c24)-c2c(C4CCCCC4)c4ccc(C(=O)O)cc4n2CCC3)CC1` [Compound 348], 143 nM.
`O=C(O)c1ccc2c(C3CCCCC3)c3n(c2c1)CCn1cc(CCN2CCCCC2)c2cccc-3c21` [Compound 349]: the IC50 stood at 98 nM.
Under `CCN(CC)Cc1cn2c3c(cccc13)-c1c(C3CCCCC3)c3ccc(C(=O)O)cc3n1CC2` [Compound 350] stands 65 nM.
Under `CCN(C)Cc1cn2c3c(cccc13)-c1c(C3CCCCC3)c3ccc(C(=O)O)cc3n1CC2` [Compound 351] stands 56 nM; under `O=C(O)c1ccc2c(C3CCCCC3)c3n(c2c1)CCCn1cc(CN2CCC(F)CC2)c2cccc-3c21` [Compound 352], 89 nM; under `O=C(O)c1ccc2c(C3CCCCC3)c3n(c2c1)CCCn1cc(CN2CCCC(F)C2)c2cccc-3c21` (stereo not shown) [Compound 353], 109 nM.
The same measure for `O=C(O)c1ccc2c(C3CCCCC3)c3n(c2c1)CCCn1cc(CN2CC[C@H](F)C2)c2cccc-3c21` [Compound 354]: 110 nM; for `CCN1CCN(Cc2cn3c4c(cccc24)-c2c(C4CCCCC4)c4ccc(C(=O)O)cc4n2CCC3)CC1` [Compound 356]: 120 nM.
Consider `CSCCNCc1cn2c3c(cccc13)-c1c(C3CCCCC3)c3ccc(C(=O)O)cc3n1CCC2` [Compound 358], for which the IC50 is 153 nM.
Under `O=C(O)c1ccc2c(C3CCCCC3)c3n(c2c1)CCCn1cc(CN2CCCC(O)C2)c2cccc-3c21` (stereo not shown) [Compound 359] stands 155 nM.
Turning to `O=C(O)c1ccc2c(C3CCCCC3)c3n(c2c1)CCCn1cc(CNC2CCOCC2)c2cccc-3c21` [Compound 360], the IC50 was 149 nM.
Under `CCN(Cc1cn2c3c(cccc13)-c1c(C3CCCCC3)c3ccc(C(=O)O)cc3n1CCC2)C(C)C` [Compound 361] stands 176 nM; under `COCCN(CCOC)Cc1cn2c3c(cccc13)-c1c(C3CCCCC3)c3ccc(C(=O)O)cc3n1CCC2` [Compound 362], 337 nM.
For the compound `O=C(O)c1ccc2c(C3CCCCC3)c3n(c2c1)CCCn1cc(CN(CCO)CCO)c2cccc-3c21` [Compound 363], the IC50 came out at 124 nM.
Turning to `CC1CCC(NCc2cn3c4c(cccc24)-c2c(C4CCCCC4)c4ccc(C(=O)O)cc4n2CCC3)CC1` (stereo not shown) [Compound 364], the IC50 came out at 277 nM.
In the case of `CC(=O)N1CCN(Cc2cn3c4c(cccc24)-c2c(C4CCCCC4)c4ccc(C(=O)O)cc4n2CCC3)CC1` [Compound 365], the IC50 was determined as 88 nM.
The same measure for `CCCNCc1cn2c3c(cccc13)-c1c(C3CCCCC3)c3ccc(C(=O)O)cc3n1CCC2` [Compound 366]: 121 nM; for `CC(C)CNCc1cn2c3c(cccc13)-c1c(C3CCCCC3)c3ccc(C(=O)O)cc3n1CCC2` [Compound 367]: 158 nM; for `CN(C)CCNCc1cn2c3c(cccc13)-c1c(C3CCCCC3)c3ccc(C(=O)O)cc3n1CCC2` [Compound 368]: 303 nM.
Turning to `CN(C)C(=O)CNCc1cn2c3c(cccc13)-c1c(C3CCCCC3)c3ccc(C(=O)O)cc3n1CCC2` [Compound 369], the half-inhibitory concentration (IC50) was determined as 171 nM.
For the compound `O=C(O)c1ccc2c(C3CCCCC3)c3n(c2c1)CCCn1cc(CNC2CCCOC2)c2cccc-3c21` (stereo not shown) [Compound 370], the IC50 stood at 94 nM.
Take `O=C(O)c1ccc2c(C3CCCCC3)c3n(c2c1)CCCn1cc(CNC2CCCC2)c2cccc-3c21` [Compound 371]: the IC50 is 109 nM.
Under `CNCc1cn2c3c(cccc13)-c1c(C3CCCCC3)c3ccc(C(=O)O)cc3n1CCC2` [Compound 372] stands 106 nM; under `CS(=O)(=O)NC(=O)c1ccc2c(C3CCCCC3)c3n(c2c1)CCCn1cc(CN2CCCCC2)c2cccc-3c21` [Compound 373], 153 nM.
The same measure for `O=C(NC1CC1)c1ccc2c(C3CCCCC3)c3n(c2c1)CCCn1cc(CN2CCCCC2)c2cccc-3c21` [Compound 374]: 365 nM.
Turning to `CN(C)S(=O)(=O)NC(=O)c1ccc2c(C3CCCCC3)c3n(c2c1)CCCn1cc(CN2CCCCC2)c2cccc-3c21` [Compound 375], the IC50 came to 177 nM.
The same measure for `CCN(C)Cc1cn2c3c(cccc13)-c1c(C3CCCCC3)c3ccc(C(=O)OC)cc3n1CCC2` [Compound 376]: 641 nM; for `O=C(O)c1ccc2c(C3CCCCC3)c3n(c2c1)CCCn1cc(CNC2CCCCC2)c2cccc-3c21` [Compound 378]: 199 nM.
`CCC(C)NCc1cn2c3c(cccc13)-c1c(C3CCCCC3)c3ccc(C(=O)O)cc3n1CCC2` (stereo not shown) [Compound 379]: the IC50 is 117 nM.
Under `O=C(O)CNCc1cn2c3c(cccc13)-c1c(C3CCCCC3)c3ccc(C(=O)O)cc3n1CCC2` [Compound 380] stands 93 nM; under `COCCNCc1cn2c3c(cccc13)-c1c(C3CCCCC3)c3ccc(C(=O)O)cc3n1CCC2` [Compound 381], 117 nM; under `CC1CCC(C)N1Cc1cn2c3c(cccc13)-c1c(C3CCCCC3)c3ccc(C(=O)O)cc3n1CCC2` (stereo not shown) [Compound 382], 141 nM.
As for `O=C(O)c1ccc2c(C3CCCCC3)c3n(c2c1)CCCn1cc(CNC2CCC2)c2cccc-3c21` [Compound 383], the IC50 worked out at 85 nM.
Under `O=C(O)c1ccc2c(C3CCCCC3)c3n(c2c1)CCCn1cc(CN[C@H]2CC[C@H](O)CC2)c2cccc-3c21` [Compound 384] stands 65 nM; under `O=C(O)c1ccc2c(C3CCCCC3)c3n(c2c1)CCCn1cc(CN2CCC(O)CC2)c2cccc-3c21` [Compound 385], 133 nM.
The same measure for `O=C(O)c1ccc2c(C3CCCCC3)c3n(c2c1)CCCn1cc(CNCc2cccnc2)c2cccc-3c21` [Compound 386]: 196 nM; for `CON(C)Cc1cn2c3c(cccc13)-c1c(C3CCCCC3)c3ccc(C(=O)O)cc3n1CCC2` [Compound 387]: 180 nM.
Regarding `O=C(O)c1ccc2c(C3CCCCC3)c3n(c2c1)CCCn1cc(CNCCO)c2cccc-3c21` [Compound 388], the IC50 amounted to 159 nM.
